# Laboratory results as given in patent publication US4882420A, “Dihalo-statine substituted renin inhibitors” (The Upjohn Company, priority 1986, dated 1989).
# Molecular target: T1, renin (plasma renin activity of human plasma) (Homo sapiens, UniProt P00797)
# T1 construct: Lyophilized human plasma with 0.1% EDTA is obtained from New England Nuclear; tissue New England Nuclear Plasma Renin Activity Control; host or cells: human plasma (lyophilized, reconstituted)
# T1 sequence (P00797 67-406): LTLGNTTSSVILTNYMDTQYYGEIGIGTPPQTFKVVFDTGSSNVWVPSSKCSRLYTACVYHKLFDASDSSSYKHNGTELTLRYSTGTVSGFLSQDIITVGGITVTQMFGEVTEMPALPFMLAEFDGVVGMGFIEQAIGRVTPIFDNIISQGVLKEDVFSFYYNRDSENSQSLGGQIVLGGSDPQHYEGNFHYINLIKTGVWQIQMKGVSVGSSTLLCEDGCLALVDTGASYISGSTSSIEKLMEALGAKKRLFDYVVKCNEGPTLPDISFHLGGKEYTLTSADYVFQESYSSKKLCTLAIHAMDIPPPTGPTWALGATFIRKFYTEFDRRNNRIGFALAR
# Test: GAMMACOAT plasma renin activity (PRA) radioimmunoassay, inhibition of angiotensin I generation in reconstituted human plasma
# Format: biochemical
# Settings: for potency estimated from few doses: reconstituted lyophilized human plasma, 90 minutes at 37° C., estimated by plotting two inhibitor concentrations, read-out: IC50 (I50, concentration producing 50% inhibition of plasma renin activity)
# Procedure: Lyophilized human plasma with 0.1% EDTA is obtained from New England Nuclear, North Billerica, Mass. 01862 as "Plasma Renin Activity Control". This lyophilized plasma is reconstituted, on the day of the assay, with cold sterile distilled water according to directions on the vial. The plasma renin activity (PRA) of the reconstituted plasma is assayed with "GAMMACOAT [^125 I] Plasma Renin Activity Radioimmunoassay Kit" supplied by Clinical Assays, a Division of Travenol Laboratories, Inc., Cambridge, Mass. 02139. The procedure used with these kits is carried out essentially as described in the literature which accompanies them. The initial (enzymatic generation of Angiotensin 1) step is modified slightly to accommodate the testing of renin inhibitors and to minimize the amount of plasma required to perform the assay. Thus, for every milliliter of reconstituted plasma used in the assay, there is added and vortexed 10 μl of PMSF (0.3M phenylmethylsulfonyl fluoride in ethanol) and 100 μl of maleate generation buffer, both provided in the kit. 250 μl of this mixture is then transferred to each tube used in the generation step along with 10 μl of the potential renin inhibitor suspended or dissolved in 1% Tween 80 in water. […]
# In the case of renin inhibitory peptide (RIP), 100 μl of the 4° C. blank is added to a GAMMACOAT tube. […] The tubes are then counted in a gamma counter. The results of the RIP are evaluated with the Rodbard Radioimmunoassay Program and the plasma renin activity (PRA) is expressed as […]. […] In addition to I50 values, relative potencies are also calculated. A relative potency is determined by comparing the I50 of RIP to the I50 of the compound. However, it must be emphasized that relative potencies are calculated from the I50 obtained for RIP on the day the compound is assayed and not from the average I50 for RIP.
# It has been determined that the GAMMACOAT-PRA assay is a suitable replacement for the RENAK assay (supplied by Hoffman-LaRoche and previously known as a diagnostic test for high renin states) to determine the activity of potential renin inhibitors.
potency estimated from few doses [nM],relative potency (I50 of RIP compared to I50 of the compound) (relative to RIP (H-Pro-His-Pro-Phe-His-Phe-Phe-Val-Tyr-Lys-OH) assayed on the same day),Compound
12,"1,000","CC[C@H](C)[C@H](NC(=O)C(F)(F)[C@H](O)[C@H](CC(C)C)NC(=O)[C@H](Cc1c[nH]cn1)NC(=O)[C@H](Cc1ccccc1)NC(=O)OC(C)(C)C)C(=O)NCc1ccccn1 [N-tert-butyloxycarbonyl-L-phenylalanyl-L-histidyl-4S-amino-2,2-difluoro-3R-hydroxy-4-(2-methylpropyl)-1-oxobutyl-L-isoleucyl-2-pyridylmethylamide]"
1.4,,"CC[C@H](C)[C@H](NC(=O)C(F)(F)C(=O)C(CC(C)C)NC(=O)[C@H](Cc1c[nH]cn1)NC(=O)[C@H](Cc1ccccc1)NC(=O)OC(C)(C)C)C(=O)NCc1ccccn1 (stereo partly drawn) [N-tert-butyloxycarbonyl-L-phenylalanyl-L-histidyl-4-amino-2,2-difluoro-4-(2-methylpropyl)-1,3-dioxobutyl-L-isoleucyl-2-pyridylmethylamide]"
